Assay results as given in patent US20220249484A1, “METHODS FOR PREDICTING RESPONSIVENESS OF CANCER TO FERROPTOSIS-INDUCING THERAPIES” (Memorial Sloan Kettering Cancer Center, priority 2019, published 2022).

Experiments:
NF639 cells [1] = test: Cystine deprivation-induced ferroptosis after TGF-β; type: cell-based, mouse; conditions: 6 ng/μL TGF-β 48 h; 3.2×10^5 cells/3.5 cm^2 well; cystine-free 12 h; untreated cells highly resistant
Protocol: To determine the effect of TGF-β on cystine deprivation induced ferroptosis, NF639 cells were treated with or without 6 ng/μL TGF-β for 48 h, at which point they were plated at low density (0.8 cells×10^5/3.5 cm^2 well), grown overnight, and treated with media containing or lacking cystine, or lacking cystine with 1 μM ferrostatin-1 for 12 h. NF639 cells were also plated at a high density of 3.2×10^5 cells/3.5 cm^2 well, grown overnight and treated with media containing or lacking cystine, or lacking cystine with 1 μM ferrostatin-1 for 12 h. Cell death was measured by Sytox green staining coupled with flow cytometry.

NF639 cells [2] = test: Expression of EMT-related genes by qPCR after TGF-β; type: cell-based, mouse; conditions: various concentrations of TGF-β, 48 h
Protocol: RNA extraction and qRT-PCR. RNA was extracted using the TRIzol reagent (Invitrogen). 20% chloroform was added to each sample, vortexed briefly, and incubated at room temperature for 15 min. Samples were then centrifuged at high speed at 4° C. for 15 min. The aqueous phase was moved to a new tube and an equal volume of isopropanol was added. Samples were incubated at room temperature for 10 min, followed by centrifugation at high speed at 4° C. for 10 min. Pellets were washed in 95% ethanol, dried, and resuspended in nuclease-free water. cDNA was synthesized using iScript™ cDNA Synthesis Kit according to the manufacturer's instructions (Bio-Rad). qRT-PCR was performed with IQ™ SYBR® Green Supermix (Bio-Rad) in a CFX Connect Real-Time PCR Detection System (Bio-Rad).
The potential link between epithelial-mesenchymal transition (EMT) and ferroptosis was examined using cells generated from mammary tumors of MMTV-neu mice. NF639 cells, derived from mouse mammary tumors containing MMTV-neu, were treated with various concentrations of TGF-β for 48 h to induce EMT. TGF-β can enhance EMT in cells bearing overactive HER2/neu signaling. Expression of a panel of EMT-related genes was assayed by qPCR as indicated.

HCT116 cells [3] = test: Ferroptosis in HCT116 cells expressing PAK-CAAX; type: cell-based, human; conditions: constitutively active PAK-CAAX versus inactive PAK^K298R-CAAX
MEFs = test: Ferroptosis and lipid ROS in MEFs; type: cell-based, mouse
Protocol: (§1) Measurement of cell death, cell viability and lipid peroxidation. Cell death was analyzed by propidium iodide (Invitrogen, Waltham, Mass., USA) or SYTOX Green (Invitrogen) staining followed by microscopy or flow cytometry. For 3D spheroids, cell viability was determined using the CellTiter-Glo® 3D Cell Viability Assay (Promega, Madison, Wis., USA) according to the manufacturer's instructions. Viability was calculated by normalizing ATP levels to spheroids treated with normal full media. To analyze lipid peroxidation, cells were stained with 5 μM BODIPY-C11 (Invitrogen) for 30 minutes at 37° C. followed by flow cytometric analysis.
Merlin-regulated ferroptosis in cell density dependent manner was also observed in MEFs, which are not of epithelial origin. Cell death of MEFs with different cell density induced by cystine starvation for 12 h was measured by PI staining (FIG. 15A), and flow cytometry (FIG. 15B). The effect of cystine starvation on lipid ROS production in MEFs cells with different cell density (6 h treatment) is also shown in FIG. 15B. […] As shown in FIGS. 15A-15D, increased cell density mitigated both cell death and lipid ROS generation induced by cystine starvation, erastin and RSL3 in MEFs.
MEFs also regulated the activity of YAP at high density in a Merlin-dependent manner. MEFs seeded at increasing density were probed for YAP localization by Immunofluorescence (FIG. 15E). The effect of Merlin was assessed by infecting MEFs with shMerlin lentivirus and selected with puromycin. […] As shown in FIGS. 15E-15F, with increasing cell confluence, there was an increase of YAP nuclear exclusion in MEFs, which was attenuated by Merlin knockdown.

HCT116 cells [4] = test: Cell density-dependent induction of ferroptosis in HCT116 cells (cell death and lipid ROS by flow cytometry); type: cell-based, human; conditions: 5 μM RSL3; different cell density; cell death 24 h, lipid ROS 16 h
Protocol: Induction and inhibition of ferroptosis. To induce ferroptosis, cells with different density were seeded in 6-well plates. For cystine-starvation experiments, cells were washed with PBS twice and then cultured in cystine-free medium in the presence of 10% (v/v) dialyzed FBS for the indicated time. The ferroptosis inducing compounds erastin and RSL3 and the ferroptosis inhibitor Ferrostatin-1 were purchased from Sigma-Aldrich (St. Louis, Mo., USA).
as §1, with “To analyze lipid peroxidation, cells were stained with 5 μM BODIPY-C11 (Invitrogen) for 30 minutes at 37° C. followed by flow cytometric analysis.” left out
To test erastin-induced ferroptosis, HCT116 cells with different cell density were treated with 30 μM erastin and quantification of cell death by propidium iodide (PI) staining followed by flow cytometry (after 30 h of erastin treatment). Lipid ROS production was assessed by C11-BODIPY staining followed by flow cytometry (after 24 h of erastin treatment). […]

HCT116 cells [5] = test: Ferroptosis in confluent HCT116 cells expressing shEcad, shMerlin or shLats1/2; type: cell-based, human; conditions: cell death 18 h, lipid ROS 14 h; versus shNT
Protocol: as §1
The involvement of the Hippo signaling in the regulation of ferroptosis by cell-cell contact was also assessed. Cells depleted of Ecad, Merlin, or Lats were generated using shRNA technology. HCT116 cells were infected by lentiviruses expressing shRNA sequences targeting Ecad (shEcad), Merlin (shMerlin), or Lats1/2 (shLats1/2), as indicated. Knockdown efficiency was confirmed by Western blot (FIG. 2B). […] Cell death was measured at 30 h using SYTOX Green staining followed by flow cytometry. Lipid ROS was measured at 24 hours using C11-BODIPY staining coupled with flow cytometry. […] Cell death was measured at 18 h and lipid ROS was measured at 14 h (FIG. 11A).

MSTO-211H cells = test: Ferroptosis in confluent MSTO-211H cells (shMerlin, shNcad); type: cell-based, human
Protocol: as §1
To confirm the ferroptosis-regulating role of Merlin in mesothelioma cells, the effect of Merlin knockdown on ferroptosis sensitivity was assessed. MSTO-211H cells were infected with lentiviruses expressing shMerlin. RNAi knockdown efficiency was confirmed by Western blot (FIG. 3F). Then, shNT or shMerlin MSTO-211H cells were cultured to high confluence, at which point they were treated with media containing or lacking cystine, with or without Fer-1 for 24 h. Cell death was measured by SYTOX Green staining followed by flow cytometry (FIG. 3G). To measure lipid reactive species, shNT or shMerlin MSTO-211H cells were treated for 18 h, at which point they were stained with 2 μM C11-BODIPY for lipid ROS measurement (FIG. 311). Confluent MSTO-211H cells expressing shNT or shMerlin were also treated with 1 μM RSL3 with or without […] Fer-1. Cell death (left, 24 h after treatment) and lipid ROS production (right, 16 h) were measured (FIG. 13B).
Therefore, the cell density dependence of ferroptosis is not limited to epithelial cells expressing Ecad. […] To assess the expression of N-cadherin in MSTO-211H mesothelioma cells, the cells were cultivated at different cell densities, and the levels of Ncad, p-YAP and total YAP were analyzed by Western blot. […] Therefore, the potential role of Ncad in ferroptosis was tested. MSTO-211H cells were infected with lentiviruses expressing Ncad shRNA (shNcad) and selected with puromycin.

HCT116 cells [6] = test: RSL3-induced cell death in HCT116 cells overexpressing TFRC and/or ACSL4; type: cell-based, human; conditions: 2 μM RSL3, 24 h; SYTOX Green
Protocol: To test whether TFRC and ACSL4 can directly enhance ferroptosis in confluent cells, TFRC and ACSL4 separately or in combination were overexpressed. HCT116 cells were transduced with retroviral particles containing mCherry-ACSL4, transfected with TFRC, or both. Expression was assayed by Western blot. Two bands were detected for mCherry-ACSL4, representing the full-length mCherry-ACSL4 and that with mCherry tag truncated (FIG. 17A). Additionally, cells were plated at the indicated density and treated with 2 μM RSL3 for 24 h. Cell death was measured by SYTOX Green staining coupled with flow cytometry.

Row | Compound | cell death under cystine starvation at high cell density (NF639 cells [1]) | expression of EMT-related genes (NF639 cells [2]) | RSL3-induced ferroptosis in PAK-CAAX expressing cells (HCT116 cells [3]) | RSL3-induced ferroptosis and lipid ROS in MEFs at different densities (MEFs; 1 μM RSL3, ferroptosis 8 h, lipid ROS 5 h) | RSL3-induced cell death and lipid ROS in confluent Merlin RNAi MEFs (MEFs; RSL3 1 μM, 8 h) | RSL3-induced ferroptosis (cell death, lipid ROS) (HCT116 cells [4]) | RSL3-induced cell death and lipid ROS after knockdown of Ecad, Merlin, Lats1/2 (HCT116 cells [5]) | sensitivity of confluent shNcad cells to RSL3 (cell death) (MSTO-211H cells; 1 μM RSL3, 16 h) | sensitivity of confluent shMerlin cells to RSL3 (cell death, lipid ROS) (MSTO-211H cells; 1 μM RSL3, cell death 24 h, lipid ROS 16 h) | RSL3-induced cell death, confluent cells co-expressing TFRC and ACSL4 (HCT116 cells [6]) | RSL3-induced cell death, confluent cells expressing either TFRC or ACSL4 (HCT116 cells [6])
1 | TGF-β | died under cystine starvation at high cell density | upregulated the expression of multiple EMT-related genes | – | – | – | – | – | – | – | – | –
2 | COC(=O)c1ccc([C@@H]2c3[nH]c4ccccc4c3C[C@@H](C(=O)OC)N2C(=O)CCl)cc1 [RSL3] | – | – | enhanced RSL3-induced ferroptosis | ferroptosis (8 h) and lipid ROS production (5 h) was also observed | increased cell death and lipid ROS production | induces HCT116 human colon cancer cells to undergo ferroptosis in a cell density-dependent manner | sensitized HCT116 cells to ferroptosis and increased lipid ROS accumulation | sensitized these cells to ferroptosis | became sensitive | further enhanced cell death | partially sensitized to ferroptosis
